One assay concerns the target T1, FAS from S. cereviseae (Saccharomyces cerevisiae, UniProt P07149+P19097).
T1 construct: an FAS extract from Saccharomyces cerviseae was prepared; (the yeast itself); host or cells: Fleishmans' freeze dried yeast (Saccharomyces cerevisiae); dialyzed ammonium sulfate precipitate of the lysate
In words: FAS inhibition assay (Example 1C). Type of assay: biochemical. The protocol: To test the compounds for FAS inhibitory activity, an FAS extract from Saccharomyces cerviseae was prepared. Freeze dried yeast (Fleishmans' freeze dried yeast, Specialty Brands, San Francisco, Calif.) 1 g, was hydrated in 5 mls deionized water for 15 minutes at 4° C. Subsequent extraction steps were conducted at a temperature between 4° C. and 10° C., except that in the cell lysis step the temperature may have briefly exceeded these boundaries. The cells were pelleted by centrifugation; the pelleted volume was measured; and the cells were resuspended in 5 vol. (5 mls per ml cell volume) extraction buffer [125 mM KH2PO4, pH 6.6, 1 mM EDTA, 1 mM DTT, 0.7 μg/ml pepstatin (Boehringer Mannheim, Indianapolis, Ind.), 0.2 μg/ml aprotinin (Boehringer Mannheim, Indianapolis, Ind.), 0.2 μg/ml leupeptin (Boehringer Mannheim, Indianapolis, Ind.)]. The cells were again pelleted and resuspended in 2 vol. extraction buffer. The cells were lysed using a bead mill homogenizer (Biospec Products, Bartlesville, OD) with a volume of glass beads equal to the volume of the yeast cells. The bead mill was operated five times for 1 minute, with 1 minute intervals between operations to allow the water jacket of the bead mill to cool the material in the mill. The lysate was centrifuged at 30,000×g for 30 minutes and the supernate was collected. Ammonium sulfate was added to the supernate to 50% saturation and the mixture was stirred for 30 minutes on ice. […]
105 μl of FAS extract was placed in each well of a polypropylene 96 well plate (Costar Corp. Cambridge, Mass.) and multiple 5 μl dilutions of compound A, compound B or negative control solution were introduced into each of the wells. […] The relative initial reaction rates in each well were measured by measuring the decrease in optical density at 340 nm using a UV Max microtiter plate reader (Molecular Devices, Sunnyvalle, Calif.).

The target in assay [1] is T2, FAS of C. Albicans strain 4918 (Candida albicans, UniProt P34731+P43098).
T2 construct: endogenous in cells; host or cells: Candida albicans strain 4918 (from Dr. Ronald Cihlar, Georgetown University Medical Center)
T2 sequence (P43098 whole entry): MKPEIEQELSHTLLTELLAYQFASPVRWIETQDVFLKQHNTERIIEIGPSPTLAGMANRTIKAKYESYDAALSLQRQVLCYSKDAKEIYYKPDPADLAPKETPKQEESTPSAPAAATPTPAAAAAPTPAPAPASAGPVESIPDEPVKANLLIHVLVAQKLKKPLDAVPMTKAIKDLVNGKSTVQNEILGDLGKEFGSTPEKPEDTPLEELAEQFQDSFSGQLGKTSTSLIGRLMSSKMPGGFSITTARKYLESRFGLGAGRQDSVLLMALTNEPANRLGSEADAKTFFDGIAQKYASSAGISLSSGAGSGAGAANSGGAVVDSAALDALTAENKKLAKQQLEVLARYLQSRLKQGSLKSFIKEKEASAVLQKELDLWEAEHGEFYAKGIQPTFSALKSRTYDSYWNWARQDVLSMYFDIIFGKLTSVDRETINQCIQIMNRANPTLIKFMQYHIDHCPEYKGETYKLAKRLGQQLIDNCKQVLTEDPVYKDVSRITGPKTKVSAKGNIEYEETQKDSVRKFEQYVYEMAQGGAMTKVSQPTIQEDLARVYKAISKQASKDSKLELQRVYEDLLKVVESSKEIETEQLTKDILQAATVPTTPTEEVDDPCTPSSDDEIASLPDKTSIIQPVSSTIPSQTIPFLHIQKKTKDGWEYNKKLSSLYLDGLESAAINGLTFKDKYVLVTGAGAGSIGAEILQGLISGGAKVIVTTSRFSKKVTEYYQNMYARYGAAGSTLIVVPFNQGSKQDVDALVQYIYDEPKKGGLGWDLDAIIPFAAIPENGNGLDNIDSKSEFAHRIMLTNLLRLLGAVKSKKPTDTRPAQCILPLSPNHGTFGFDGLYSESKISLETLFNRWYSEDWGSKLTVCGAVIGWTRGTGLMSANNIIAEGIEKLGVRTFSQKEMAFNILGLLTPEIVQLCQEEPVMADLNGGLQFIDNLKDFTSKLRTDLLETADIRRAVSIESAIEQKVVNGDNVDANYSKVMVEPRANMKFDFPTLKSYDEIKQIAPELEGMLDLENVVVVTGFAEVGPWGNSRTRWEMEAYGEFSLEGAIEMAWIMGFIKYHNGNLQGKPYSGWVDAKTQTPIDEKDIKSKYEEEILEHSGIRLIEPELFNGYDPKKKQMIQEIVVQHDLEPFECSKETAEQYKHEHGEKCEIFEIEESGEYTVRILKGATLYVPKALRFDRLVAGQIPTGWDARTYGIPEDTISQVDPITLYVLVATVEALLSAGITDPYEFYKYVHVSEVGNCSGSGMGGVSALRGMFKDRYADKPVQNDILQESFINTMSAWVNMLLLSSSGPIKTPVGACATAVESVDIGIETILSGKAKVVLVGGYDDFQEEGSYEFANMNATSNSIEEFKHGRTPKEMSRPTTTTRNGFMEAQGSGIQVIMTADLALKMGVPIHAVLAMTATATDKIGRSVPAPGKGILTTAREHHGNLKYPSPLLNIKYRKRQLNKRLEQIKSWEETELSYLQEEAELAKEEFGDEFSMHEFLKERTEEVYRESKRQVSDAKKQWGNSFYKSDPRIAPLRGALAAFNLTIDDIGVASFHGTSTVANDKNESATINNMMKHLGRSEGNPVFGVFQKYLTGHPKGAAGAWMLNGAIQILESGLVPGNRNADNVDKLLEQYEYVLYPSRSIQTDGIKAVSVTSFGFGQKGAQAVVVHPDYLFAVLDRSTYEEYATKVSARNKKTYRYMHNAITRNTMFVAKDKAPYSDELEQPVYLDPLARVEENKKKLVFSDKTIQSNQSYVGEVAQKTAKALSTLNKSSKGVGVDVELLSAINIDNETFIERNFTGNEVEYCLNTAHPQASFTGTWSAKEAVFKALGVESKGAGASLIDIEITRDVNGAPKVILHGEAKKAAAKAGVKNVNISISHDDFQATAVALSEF
T2 sequence (P34731 whole entry): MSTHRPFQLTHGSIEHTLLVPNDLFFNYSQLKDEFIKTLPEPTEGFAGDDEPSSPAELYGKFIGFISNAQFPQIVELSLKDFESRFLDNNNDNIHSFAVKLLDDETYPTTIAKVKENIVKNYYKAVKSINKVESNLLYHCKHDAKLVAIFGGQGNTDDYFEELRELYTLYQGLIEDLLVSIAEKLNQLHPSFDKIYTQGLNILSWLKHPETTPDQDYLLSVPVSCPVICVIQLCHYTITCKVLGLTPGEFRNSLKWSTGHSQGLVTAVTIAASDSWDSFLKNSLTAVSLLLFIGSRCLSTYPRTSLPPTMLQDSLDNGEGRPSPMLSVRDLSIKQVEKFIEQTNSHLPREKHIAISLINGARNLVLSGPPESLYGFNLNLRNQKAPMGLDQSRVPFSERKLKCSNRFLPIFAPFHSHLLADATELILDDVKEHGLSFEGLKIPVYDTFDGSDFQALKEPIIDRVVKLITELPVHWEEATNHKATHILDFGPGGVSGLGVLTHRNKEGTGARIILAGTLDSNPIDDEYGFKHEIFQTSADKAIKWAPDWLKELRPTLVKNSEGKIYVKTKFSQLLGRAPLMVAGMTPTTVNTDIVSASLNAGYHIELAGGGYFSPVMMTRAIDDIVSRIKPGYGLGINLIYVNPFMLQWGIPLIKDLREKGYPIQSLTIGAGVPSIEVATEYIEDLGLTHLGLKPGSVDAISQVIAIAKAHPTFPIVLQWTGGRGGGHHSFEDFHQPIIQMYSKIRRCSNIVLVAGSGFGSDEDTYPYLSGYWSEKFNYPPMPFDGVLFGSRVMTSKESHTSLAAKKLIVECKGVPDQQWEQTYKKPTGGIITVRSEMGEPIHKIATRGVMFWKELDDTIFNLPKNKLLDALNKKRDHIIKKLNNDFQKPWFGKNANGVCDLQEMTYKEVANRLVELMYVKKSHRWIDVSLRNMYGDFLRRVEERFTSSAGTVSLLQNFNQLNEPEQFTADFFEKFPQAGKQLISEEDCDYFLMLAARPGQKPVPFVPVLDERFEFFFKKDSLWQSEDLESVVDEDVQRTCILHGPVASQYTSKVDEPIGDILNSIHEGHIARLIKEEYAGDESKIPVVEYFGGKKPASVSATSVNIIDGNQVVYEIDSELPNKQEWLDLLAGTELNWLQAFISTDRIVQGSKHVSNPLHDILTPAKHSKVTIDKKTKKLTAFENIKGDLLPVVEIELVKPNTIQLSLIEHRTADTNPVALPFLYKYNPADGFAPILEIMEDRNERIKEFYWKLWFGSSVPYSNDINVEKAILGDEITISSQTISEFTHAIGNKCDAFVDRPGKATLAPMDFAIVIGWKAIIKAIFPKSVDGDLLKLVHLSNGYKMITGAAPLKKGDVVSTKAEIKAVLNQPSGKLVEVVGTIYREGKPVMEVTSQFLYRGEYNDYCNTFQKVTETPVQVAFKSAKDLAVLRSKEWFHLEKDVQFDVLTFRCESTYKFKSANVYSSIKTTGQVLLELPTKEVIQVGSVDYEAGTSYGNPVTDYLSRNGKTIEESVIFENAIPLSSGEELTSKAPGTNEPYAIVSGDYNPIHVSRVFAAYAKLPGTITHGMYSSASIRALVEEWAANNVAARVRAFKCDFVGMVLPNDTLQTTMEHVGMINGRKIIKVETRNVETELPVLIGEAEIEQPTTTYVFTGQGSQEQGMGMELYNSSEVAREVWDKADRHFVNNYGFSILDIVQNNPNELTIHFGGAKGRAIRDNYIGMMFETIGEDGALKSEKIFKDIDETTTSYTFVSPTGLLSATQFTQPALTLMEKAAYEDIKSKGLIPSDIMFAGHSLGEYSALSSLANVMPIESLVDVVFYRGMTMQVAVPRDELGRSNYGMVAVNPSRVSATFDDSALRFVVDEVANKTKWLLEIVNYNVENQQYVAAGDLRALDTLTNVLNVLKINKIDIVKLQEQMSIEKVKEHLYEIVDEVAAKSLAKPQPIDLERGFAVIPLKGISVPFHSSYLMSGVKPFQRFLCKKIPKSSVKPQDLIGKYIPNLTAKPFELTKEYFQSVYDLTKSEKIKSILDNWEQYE
In words: FAS activity in extracts of treated C. Albicans cultures (Example 10). To be noted: for remaining activity at 25 µg/mL: read-out: Percent Remaining FAS Activity. Type of assay: cell-based. The protocol: C. Albicans strain 4918 (available from Dr. Ronald Cihlar, Georgetown University Medical Center, Washington, D.C.) was grown in minimal medium (M63 media available from Difco, Detroit, Mich.) at 37° C. to mid-log phase. 10 μg/ml cerulenin and 25 μg/ml of compound B were added to separate cultures. At 15 minute intervals, 20 ml samples were removed and extracts prepared by mechanical extraction as in Example 1C, except that the ammonium sulfate precipitation step was not applied. The extract was diluted to 1 ml to form a solution containing 0.4M potassium phosphate, pH 7.3, 0.125 μM dithiothreitol, 50 μM acetyl-CoA, 100 μM NADPH. After incubation at 37° C. for 5 minutes, 100 μM malonyl-CoA containing 0.5 μCi [2-^14 C]-malonyl-CoA (Amersham, Arlington Heights, Ill.). After 10 minutes at 37° C., the fatty acid synthesis reaction was terminated by adding 30 μl of 60% perchloric acid (v/v) and 1 ml ethanol. Four volumes of pet. ether were added to each reaction incubation to extract the fatty acids. The relative incorporation of malonyl-CoA into fatty acids was determined by liquid scintillation counting.

In assay [2] the test system is Candida tropicalis (strain ATCC 13803). Kind of assay: Disk diffusion assay for antimicrobial activity (Example 2). The class given is cell-based. The protocol: (§1) Fungal cells were grown overnight from a single colony in 2-5 ml Sabouraud Dextrose Broth at 37° C. 1-5×10^6 were spread onto Sabouraud Dextrose Agar plates (Difco, Detroit, Mich.). Sterile 6 mm filter disks were evenly spaced with at least about 22 mm separation on the plates. To each disk, 100 μg of a compound to be tested was applied in 5-10 μl DMSO. On each plate, two disks containing 2.5 and 10 μg, respectively, of Amphotericin B (Sigma) and two disks containing 2.5 and 10 μg, respectively, of cerulenin (Sigma) were used as positive controls. A disk containing only DMSO served as the negative control. The plates were incubated at 37° C. for 24 hours and the zone of growth inhibition about each disk was visually examined and measured. Compound A and compound B typically produced clear zones of 8-12 mm diameter. Amphotericin B typically produced a clear zone of 8-10 mm diameter. Cerulenin typically produced a hazy zone of 20-25 mm diameter. A clear zone is indicative of fungicidal activity, while a hazy zone is indicative of fungistatic activity.
Background: In agar diffusion tests the substance spreads into inoculated agar from a disc or well.

The test system of assay [3] is Candida albicans (strains ATCC 10231 and ATCC 10261). Described as above. Type of assay: cell-based. The protocol: as §1

Like-named read-outs stand apart in the source and are kept apart here.

Here are results for one compound from patent publication US5859027A, “Antimicrobial agent” (ChekTec Corporation, priority 1997, dated 1999).

For orientation: remaining activity means the signal under treatment as a percentage of the control signal. `C/C=C/C=C/C=C/C1=CC2=CC(=O)C(C)(OC(=O)CC(C)O)C(=O)C2=CO1` (centres unmarked) [Compound B]: on FAS from S. cereviseae, the “FAS inhibition in the in vitro enzyme inhibition assay (in words)” value is “not directly inhibitory of FAS”. Further, the “FAS activity of cell extracts made after exposure (in words)” value in assay [1] is recorded as “markedly reduced FAS activity”. The remaining activity at 25 µg/mL in assay [1] (0.25 h) was 53%; in assay [1] (0.5 h), 40%; in assay [1] (0.75 h) it was 35%; in assay [1] (1 h), 22%. The “antimicrobial activity (in words)” value in assay [2] and in assay [3] was “had antimicrobial activity” throughout.
